“Also recorded” adds a separate entry of the source. Where two headings read alike, the source gives them in different places.
How the values were obtained:
[1] = 28-day repeat-dose oral toxicokinetics; type: in vivo, Bama minipig; conditions: Bama, minipig, plasma, po; for AUC(0-t): read-out: AUC0-24; for Cmax: read-out: Cmax; for Tmax: median (range)
Experimental: Toxicokinetics of ribitol was evaluated as part of the 28-day toxicology study in male and female Bama minipig. […] Animals in control group were dosed for 28 days twice daily with the vehicle only (Purified Water). On Days 1 and 28, blood samples were collected at 0 (pre first dose), 0.5, 1, 2, 4, 6 (pre-second dose), 6.5, 7, 8, 10, 12, and 24 hours from all available animals.

[2] = 28-day oral GLP toxicity study with 14-day recovery; conditions: mouse
Experimental: The purpose of this GLP study was to assess the potential toxicity, reversibility, persistence, or delayed effects of ribitol in mice following 28 days of BID oral gavage dosing. In addition, 20 mice/sex/group were treated for 28 days with either vehicle (purified water), 0.5, 1.0, or 1.5 g/kg/dose ribitol BID (1.0, 2.0, or 3.0 g/kg/day) followed by 14-day treatment free recovery period. In-life assessments included mortality, clinical signs including detailed clinical observations pre-test and once weekly during the dosing and recovery phase, body weight, food consumption, ophthalmology, and clinical pathology (hematology and serum chemistry). Terminal endpoints included macroscopic pathology, organ weights and histopathology. Blood was taken from a satellite group of mice for plasma TK (3/sex/timepoint) on Days 1 and 28.

[3] = tested on: HPBLs; assay: In vitro micronucleus assay; type: cell-based, human
Experimental: In this GLP-compliant study, ribitol was tested to evaluate the potential to induce micronuclei in HPBLs in both the absence and presence of S9. HPBL cells were treated for 4 hours in the absence and presence of S9, and for 24 hours in the absence of S9. Purified water was used as the vehicle. In the preliminary toxicity assay, the doses tested ranged from 0.0152 to 152 μg/mL (1 mM), which was the limit dose for this assay.

[4] = in vivo; parameters: species or system mouse
[5] = female, 0.1 g/kg, 0.1 g/kg/dose BID, Day 28, Female, mean ± SD
[6] = female, 0.3 g/kg, 0.3 g/kg/dose BID, Day 1, Female, mean ± SD
[7] = female, 0.3 g/kg, 0.3 g/kg/dose BID, Day 28, Female, mean ± SD
[8] = female, 1 g/kg, 1.0 g/kg/dose BID (2.0 g/kg/day, NOAEL), Day 28, Female
[9] = female, 1 g/kg, 1.0 g/kg/dose BID, Day 1, Female, mean ± SD
[10] = female, 2 g/kg/day, 1.0 g/kg/dose BID (2.0 g/kg/day, NOAEL), Day 28, Female
[11] = male, 0.1 g/kg, 0.1 g/kg/dose BID, Day 1, Male, mean ± SD
[12] = male, 0.1 g/kg, 0.1 g/kg/dose BID, Day 28, Male, mean ± SD
[13] = male, 0.3 g/kg, 0.3 g/kg/dose BID, Day 1, Male, mean ± SD
[14] = male, 0.3 g/kg, 0.3 g/kg/dose BID, Day 28, Male, mean ± SD
[15] = male, 1 g/kg, 1.0 g/kg/dose BID (2.0 g/kg/day, NOAEL), Day 28, Male
[16] = male, 1 g/kg, 1.0 g/kg/dose BID, Day 1, Male, mean ± SD
[17] = male, 2 g/kg/day, 1.0 g/kg/dose BID (2.0 g/kg/day, NOAEL), Day 28, Male

SMILES: OC[C@@H](O)[C@@H](O)[C@@H](O)CO [ribitol, (2R,3s,4S)-Pentane-1,2,3,4,5-pentol]
- AUC(0-t) [1, 5]: 257 ± 82.6 µg·h/mL
- Cmax [1, 5]: 37.2 ± 17.8 µg/mL
- Tmax ([1]; female, 0.1 g/kg, 0.1 g/kg/dose BID, Day 28, Female): 7 h
- AUC(0-t) [1, 6]: 605 ± 83.4 µg·h/mL
- Cmax [1, 6]: 98.4 ± 28 µg/mL
- Tmax ([1]; female, 0.3 g/kg, 0.3 g/kg/dose BID, Day 1, Female): 4.3 h
- AUC(0-t) [1, 7]: 894 ± 125 µg·h/mL
- Cmax [1, 7]: 139 ± 40.9 µg/mL
- Tmax ([1]; female, 0.3 g/kg, 0.3 g/kg/dose BID, Day 28, Female): 4.3 h
- AUC(0-t) [1, 8]: 1980 µg·h/mL
- Cmax [1, 8]: 281 µg/mL
- AUC(0-t) [1, 9]: 1770 ± 582 µg·h/mL
- Cmax [1, 9]: 261 ± 82.4 µg/mL
- Tmax ([1]; female, 1 g/kg, 1.0 g/kg/dose BID, Day 1, Female): 6.8 h
- Tmax ([1]; female, 1 g/kg, 1.0 g/kg/dose BID, Day 28, Female): 7 h
- AUC(0-t) [1, 10]: 1980 µg·h/mL
- Cmax [1, 10]: 281 µg/mL
- AUC(0-t) [1, 11]: 210 ± 75 µg·h/mL
- Cmax [1, 11]: 39.8 ± 16.8 µg/mL
- Tmax ([1]; male, 0.1 g/kg, 0.1 g/kg/dose BID, Day 1, Male): 6.8 h
- AUC(0-t) [1, 12]: 215 ± 68.9 µg·h/mL
- Cmax [1, 12]: 37.2 ± 14.2 µg/mL
- Tmax ([1]; male, 0.1 g/kg, 0.1 g/kg/dose BID, Day 28, Male): 3.8 h
- AUC(0-t) [1, 13]: 539 ± 215 µg·h/mL
- Cmax [1, 13]: 104 ± 52.1 µg/mL
- Tmax ([1]; male, 0.3 g/kg, 0.3 g/kg/dose BID, Day 1, Male): 4.3 h
- AUC(0-t) [1, 14]: 585 ± 227 µg·h/mL
- Cmax [1, 14]: 123 ± 78.2 µg/mL
- Tmax ([1]; male, 0.3 g/kg, 0.3 g/kg/dose BID, Day 28, Male): 0.8 h
- AUC(0-t) [1, 15]: 2560 µg·h/mL
- Cmax [1, 15]: 475 µg/mL
- AUC(0-t) [1, 16]: 1930 ± 373 µg·h/mL
- Cmax [1, 16]: 365 ± 93.6 µg/mL
- Tmax ([1]; male, 1 g/kg, 1.0 g/kg/dose BID, Day 1, Male): 3.8 h
- Tmax ([1]; male, 1 g/kg, 1.0 g/kg/dose BID, Day 28, Male): 0.8 h
- AUC(0-t) [1, 17]: 2560 µg·h/mL
- Cmax [1, 17]: 475 µg/mL
- NOAEL ([2]; 28 days oral): 1.5 g/kg/dose BID
- time to resolution of soft or abnormal stools ([2]; in vivo): 2 to 8 days
- cytotoxicity ([3]; 0.0152 to 152 μg/mL, with and without S9): Cytotoxicity was not observed
- induction of micronuclei ([3]; 19 to 152 μg/mL, presence and absence of S9): negative; also recorded: devoid of genotoxicity potential
- AUC(0-t) ([4]; CD-1, mouse, po, 0.5 mg/kg/day, AUC(0-24), calculated exposure): 182 µg·h/mL
- AUC(0-t) ([4]; CD-1, mouse, po, 2 g/kg/day, AUC(0-24), calculated exposure): 727 µg·h/mL
- AUC(0-t) ([4]; female, CD-1, mouse, po, 3 g/kg/day, Steady-state AUC(0-24)): 839 µg·h/mL
- AUC(0-t) ([4]; female, mouse, 3 g/kg/day, Steady-state AUC(0-24)): 749 µg·h/mL
- AUC(0-t) ([4]; male, CD-1, mouse, po, 3 g/kg/day, Steady-state AUC(0-24)): 1340 µg·h/mL
- AUC(0-t) ([4]; male, mouse, 3 g/kg/day, Steady-state AUC(0-24)): 974 µg·h/mL

From patent publication US20230364118A1, “RIBITOL TREATMENT” (priority 2020, published 2023)
